Legend:
Assay type in all cases: cell-based, human
HT-1080-dual-6 cells = test: Real time observation of apoptotic process in vitro by fluorescence microscopy; settings: 2 μM staurosporine; for apoptosis induction: imaged every 2 hours up to 12 hours; for nuclear/cytoplasmic morphology during apoptosis: images at 2-12 hours
Procedure: HT-1080-dual-6 cells were incubated with 2 μM staurosporine for apoptosis induction. The cells were visualized under blue light and images were captured with a CCD camera and fluorescence microscope. […] Bar, 50 μm. […] Bar, 10 μm.
To capture the images of real time apoptotic processes, the HT-1080-dual-6 clone was used. Staurosporine (Alexis, San Diego, Calif.), dissolved in DMSO and stored at −80 degrees, was used for induction of apoptosis. 3×10^5 cells were seeded in a 25 cm^2 flask with RPMI 1640 with 10% FBS. Staurosporine was added the next day at a concentration of 2 μM. Every 2 hours, the flask was set under the fluorescent stereo microscope and real time images were captured at each time point.

PC-3 dual cells [1] = test: Real-time visualization of drug-induced apoptosis and nuclear morphology in dual-labeled cells
Text: The dual-color cells could be easily placed in their cell cycle position by the “nuclear-cytoplasmic” ratio as observed in living cells. For fluorescence microscopy of these cells, a Leica fluorescence stereo microscope model LZ12 equipped with a mercury 50W lamp power supply was used. To visualize both GFP and RFP fluorescence at the same time, excitation was produced through a D425/60 band pass filter, 470 DCXR dichroic mirror, and emitted fluorescence was collected through a long pass filter GG475 (Chroma Technology, Brattleboro, Vt.).
(§1) PC-3 dual cells were treated with Taxol™ (0.8 ug/ml); thymidine (2 mM), and vinblastine (60 nM). Real-time imaging was done at 0, 12, 24, 36, and 48 hours. Cells were collected for DNA extraction and agarose gel electrophoresis (1.8%) analysis. […] The nuclear ring structures were […] by 24 hours.

PC-3 dual cells [2] = test: DNA extraction and agarose gel electrophoresis (1.8%) for DNA fragmentation; settings: Taxol 0.8 μg/ml
Procedure: as §1

Q: For CN[C@@H]1C[C@H]2O[C@@](C)([C@@H]1OC)n1c3ccccc3c3c4c(c5c6ccccc6n2c5c31)C(=O)NC4 [Staurosporine], which apoptosis induction (HT-1080-dual-6 cells) is on record?
A: Its apoptosis induction is “induced apoptosis”.

Q: And the apoptosis induction (HT-1080-dual-6 cells; listed as staurosporine)?
A: The apoptosis induction was “Apoptosis was well induced”.

Q: What about the “nuclear/cytoplasmic morphology during apoptosis” value (HT-1080-dual-6 cells) of the same compound?
A: Its value is “Progressive fragmentation of nucleus”.

Q: And the “nuclear/cytoplasmic morphology during apoptosis” value (HT-1080-dual-6 cells; listed as staurosporine)?
A: Its value is “condensation of cytoplasm and nucleus and fragmentation of nucleus”.

Q: With CC[C@]1(O)C[C@@H]2CN(CCc3c([nH]c4ccccc34)[C@@](C(=O)OC)(c3cc4c(cc3OC)N(C)[C@H]3[C@@](O)(C(=O)OC)[C@H](OC(C)=O)[C@]5(CC)C=CCN6CC[C@]43[C@@H]65)C2)C1 [vinblastine] as the compound, how does the “effect on cell nuclei and cytoplasm (morphology)” value (PC-3 dual cells [1]; vinblastine 60 nM) read?
A: The value was “nuclei became more condensed and the cytoplasm appeared to expand”.

Q: For CC(=O)O[C@H]1C(=O)[C@@]2(C)[C@H]([C@H](OC(=O)c3ccccc3)[C@]3(O)C[C@H](OC(=O)[C@H](O)[C@@H](NC(=O)c4ccccc4)c4ccccc4)C(C)=C1C3(C)C)[C@]1(OC(C)=O)CO[C@@H]1C[C@@H]2O [Taxol™, Paclitaxel], which “effect on nuclei (morphology)” value (PC-3 dual cells [1]; Taxol 0.8 μg/ml, by 24 hours) is on record?
A: Its value is “form a ring-shaped structure”.

Q: What about the “apoptosis (aberrant nuclear structures and fragmentation)” value (PC-3 dual cells [1]; Taxol 0.8 μg/ml, by 48 hours) of the same compound?
A: Its value is “entering apoptosis with very aberrant nuclear structures and fragmentation”.

Q: And the “DNA fragmentation by gel electrophoresis” value (PC-3 dual cells [2]; 24 hours)?
A: Its value is “before DNA fragmentation occurred”.

Q: And the “DNA fragmentation by gel electrophoresis” value (PC-3 dual cells [2]; 48 hours)?
A: Its value is “DNA fragmentation could be observed”.
